Laboratory results from patent EP0745595A1, “3-(3-Aryloxyphenyl)-1-(substituted methyl)-s-triazine-2,4,6-oxo or thiotrione herbicidal agents” (American Cyanamid Company, priority 1995, dated 1996).

Experiments:
Assay type in all cases: in vivo
CHENOPODIUM ALBUM, L. [1] = assay: Postemergence herbicidal evaluation, CHEAL (Lambsquarters, Common)
Summary of the method: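 Postemergence herbicidal activity on Chenopodium album was tested by spraying two-week-old seedlings grown in jiffy flats with compound in acetone/water (50/50) plus 0.5% TWEEN®20, using a 40 psi nozzle. Four to five weeks after treatment, stand, vigor, malformation, size, chlorosis and overall appearance were scored 0-9 relative to controls, with repeat tests averaged.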

ZEA MAYS L. = assay: Postemergence herbicidal evaluation, ZEAMX (Corn, Field)
Summary of the method: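 This greenhouse postemergence test treated corn plants about two weeks old. Compounds in a 50/50 acetone/water mixture with 0.5% TWEEN®20 were applied through a spray nozzle at 40 psi. After four to five weeks, injury was scored 0-9 against an untreated control, judging stand, vigor, malformation, size, chlorosis and overall appearance. Repeated tests were averaged.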

[2] = system: ORYZA SATIVA, L. TEBONNET; assay: Rice tolerance to post-transplant applications under flooded paddy conditions, ORYSAT (Rice, Tebonnet); details: for Herbicidal effect rating, ORYSAT: post-transplant rice, 3-4 weeks after treatment; for ORYSAT: post-transplanted rice
Summary of the method: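 Visual 0-9 rating against untreated control (stand, vigor, malformation, size, chlorosis, overall appearance), taken 3-4 weeks after treatment. Flooded silt loam, water at 1.5-3 cm; two 10-day-old seedlings per pot; compound applied to flooded soil surface 3 days post-transplant at ~0.5-0.063 kg/ha.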

[3] = system: ECHINOCHLOA CRUS-GALLI, (L) BEAU; assay: Postemergence herbicidal evaluation, ECHCG (Barnyardgrass); parameters: key to ECHCG rating / Herbicidal effect rating, ECHCG / ECHCG: 0-9 visual rating scale vs untreated control
Summary of the method: (§1)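 Application to seedlings around two weeks old: test compound in 50/50 acetone/water, 0.5% TWEEN 20, sprayed at 40 psi for roughly 0.125–0.500 kg/ha. Evaluation: 0–9 visual scale after 4–5 weeks, replicates averaged.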

GALIUM APARINE = assay: Postemergence herbicidal evaluation, GALAP (Galium); parameters: key to GALAP rating / Herbicidal effect rating, GALAP / GALAP: 0-9 visual rating scale vs untreated control
Summary of the method: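 In this postemergence greenhouse test, two-week-old Galium aparine seedlings grown in jiffy flats received a 40 psi spray of compound in acetone/water (50/50) with 0.5% TWEEN®20 surfactant. After four to five weeks, stand, vigor, malformation, size, chlorosis and overall appearance were compared with untreated controls on a 0-9 scale, averaging multiple tests.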

[4] = system: SETARIA VIRIDIS, (L) BEAU; assay: Postemergence herbicidal evaluation, SETVI (Foxtail, Green); parameters: key to SETVI rating / Herbicidal effect rating, SETVI / SETVI: 0-9 visual rating scale vs untreated control
Summary of the method: as §1

CHENOPODIUM ALBUM, L. [5] = assay: Preemergence herbicidal evaluation, CHEAL (Lambsquarters, Common); details: for CHEAL herbicidal rating: rated four to five weeks after treatment
Summary of the method: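 Preemergence, greenhouse: seed + potting soil sown on ~1 inch soil in cups; aqueous acetone spray, ~0.125–0.50 kg/ha equivalent; rated 0-9 vs control at 4–5 wk.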

CASSIA OBTUSIFOLIA, L. = assay: Postemergence herbicidal evaluation, CASOB (Sicklepod); parameters: key to CASOB rating / Herbicidal effect rating, CASOB / CASOB: 0-9 visual rating scale vs untreated control
Summary of the method: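 Postemergence foliar spray at approximately 0.125–0.500 kg/ha onto two-week seedlings; greenhouse hold, then 0–9 visual injury rating after 4–5 weeks.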

[6] = system: TRITICUM AESTIVUM, CV. APOLLO; assay: Postemergence herbicidal evaluation, TRZAWO (Wheat, Winter, CV. APOLLO)
Summary of the method: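 This greenhouse postemergence test applied compounds to roughly two-week-old wheat seedlings grown in jiffy flats. The spray solution was 50/50 acetone/water with 0.5% TWEEN®20, a polyoxyethylene sorbitan monolaurate, sprayed from a nozzle run at 40 psi. After four to five weeks of standard greenhouse care, injury was scored from 0 to 9 by comparing stand, vigor, malformation, size, chlorosis and overall appearance with a control. Multiple tests were averaged.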

IPOMOEA SPP. = assay: Postemergence herbicidal evaluation, IPOSS (Morningglory spp.)
Summary of the method: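 In this greenhouse postemergence herbicide test on Ipomoea spp. (morningglory), compounds in 50/50 acetone/water with 0.5% TWEEN®20 were sprayed at 40 psi onto seedlings about two weeks old grown in jiffy flats. After four to five weeks, injury was scored on a 0-9 scale covering stand, vigor, malformation, size, chlorosis and overall appearance versus control, with repeat tests averaged.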

[7] = system: AMBROSIA ARTEMISIIFOLIA, L.; assay: Postemergence herbicidal evaluation, AMBEL (Ragweed, Common)
Summary of the method: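 Postemergence herbicidal activity on AMBEL (common ragweed) was assessed on two-week-old seedlings grown in jiffy flats. Treatment solutions of 50/50 acetone/water with 0.5% TWEEN®20 surfactant were sprayed at 40 psi. After four to five weeks in the greenhouse, plants were scored 0-9 against a control for stand, vigor, malformation, size, chlorosis and overall appearance, with multiple tests averaged.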

“Methyl 3-{2-[(2-chloro-α,α,α,-trifluoro-p-tolyl)oxy]phenyl}tetrahydro-5-methyl-2,4,6-trioxo-s-triazine-1(2H)-acetate [Compound 28]” gave a CHEAL (CHENOPODIUM ALBUM, L. [1]; Rate 0.063 kg/ha) of 6.0, a CHEAL (CHENOPODIUM ALBUM, L. [1]; Rate 0.125 kg/ha) of 6.0 and a CHEAL rating (CHENOPODIUM ALBUM, L. [1]; Rate 0.125 kg/ha) of 6.0. It also gave a CHEAL (CHENOPODIUM ALBUM, L. [1]; Rate 0.250 kg/ha) of 8.0, a CHEAL rating (CHENOPODIUM ALBUM, L. [1]; Rate 0.250 kg/ha) of 8.0 and a CHEAL (CHENOPODIUM ALBUM, L. [1]; Rate 0.500 kg/ha) of 9.0. It also gave a CHEAL rating (CHENOPODIUM ALBUM, L. [1]; Rate 0.500 kg/ha) of 9.0, a ZEAMX (ZEA MAYS L.; Rate 0.063 kg/ha) of 1.5 and a ZEAMX (ZEA MAYS L.; Rate 0.125 kg/ha) of 2.5. It also gave a ZEAMX rating (ZEA MAYS L.; Rate 0.125 kg/ha) of 2.5, a ZEAMX (ZEA MAYS L.; Rate 0.250 kg/ha) of 4.0 and a ZEAMX rating (ZEA MAYS L.; Rate 0.250 kg/ha) of 4.0. For the same substance, the ZEAMX (ZEA MAYS L.; Rate 0.500 kg/ha) was 4.5, the ZEAMX rating (ZEA MAYS L.; Rate 0.500 kg/ha) was 4.5 and the “Herbicidal effect rating, ORYSAT” value ([2]; 0.063 kg/ha) was 0.0. For the same substance, the “Herbicidal effect rating, ORYSAT” value ([2]; 0.125 kg/ha) was 1.0, the “Herbicidal effect rating, ORYSAT” value ([2]; 0.250 kg/ha) was 2.0 and the “Herbicidal effect rating, ORYSAT” value ([2]; 0.500 kg/ha) was 2.0. For the same substance, the ORYSAT ([2]; Rate 0.250 kg/ha) was 2.0, the ORYSAT ([2]; Rate 0.500 kg/ha) was 2.0 and the ORYSAT ([2]; Rate 1.000 kg/ha) was 3.0. The ECHCG ([3]; Rate 0.063 kg/ha) was 0.0, the ECHCG ([3]; Rate 0.125 kg/ha) was 0.0 and the ECHCG rating ([3]; Rate 0.125 kg/ha) was 0.0. The ECHCG ([3]; Rate 0.250 kg/ha) was 0.0, the ECHCG rating ([3]; Rate 0.250 kg/ha) was 0.0 and the ECHCG ([3]; Rate 0.500 kg/ha) was 2.0. It also gave an ECHCG rating ([3]; Rate 0.500 kg/ha) of 2.0, a GALAP (GALIUM APARINE; Rate 0.063 kg/ha) of 6.0 and a GALAP (GALIUM APARINE; Rate 0.125 kg/ha) of 4.0. The GALAP rating (GALIUM APARINE; Rate 0.125 kg/ha) was 4.0, the GALAP (GALIUM APARINE; Rate 0.250 kg/ha) was 5.0 and the GALAP rating (GALIUM APARINE; Rate 0.250 kg/ha) was 5.0. The GALAP (GALIUM APARINE; Rate 0.500 kg/ha) was 4.5, the GALAP rating (GALIUM APARINE; Rate 0.500 kg/ha) was 4.5 and the SETVI ([4]; Rate 0.063 kg/ha) was 1.0. It also gave an SETVI ([4]; Rate 0.125 kg/ha) of 1.0, an SETVI rating ([4]; Rate 0.125 kg/ha) of 1.0 and an SETVI ([4]; Rate 0.250 kg/ha) of 2.0. It also gave an SETVI rating ([4]; Rate 0.250 kg/ha) of 2.0, an SETVI ([4]; Rate 0.500 kg/ha) of 4.0 and an SETVI rating ([4]; Rate 0.500 kg/ha) of 4.0. It also gave a CHEAL (CHENOPODIUM ALBUM, L. [5]; Rate 0.125 kg/ha) of 3.0, a CHEAL herbicidal rating (CHENOPODIUM ALBUM, L. [5]; Rate 0.125 kg/ha) of 3.0 and a CHEAL (CHENOPODIUM ALBUM, L. [5]; Rate 0.250 kg/ha) of 6.0. For the same substance, the CHEAL herbicidal rating (CHENOPODIUM ALBUM, L. [5]; Rate 0.250 kg/ha) was 6.0, the CHEAL (CHENOPODIUM ALBUM, L. [5]; Rate 0.500 kg/ha) was 7.0 and the CHEAL herbicidal rating (CHENOPODIUM ALBUM, L. [5]; Rate 0.500 kg/ha) was 7.0. For the same substance, the CHEAL (CHENOPODIUM ALBUM, L. [5]; Rate 1.000 kg/ha) was 9.0, the CASOB (CASSIA OBTUSIFOLIA, L.; Rate 0.063 kg/ha) was 3.0 and the CASOB (CASSIA OBTUSIFOLIA, L.; Rate 0.125 kg/ha) was 5.0. It also gave a CASOB rating (CASSIA OBTUSIFOLIA, L.; Rate 0.125 kg/ha) of 5.0, a CASOB (CASSIA OBTUSIFOLIA, L.; Rate 0.250 kg/ha) of 6.0 and a CASOB rating (CASSIA OBTUSIFOLIA, L.; Rate 0.250 kg/ha) of 6.0. It also gave a CASOB (CASSIA OBTUSIFOLIA, L.; Rate 0.500 kg/ha) of 6.5, a CASOB rating (CASSIA OBTUSIFOLIA, L.; Rate 0.500 kg/ha) of 6.5 and a TRZAWO ([6]; Rate 0.063 kg/ha) of 1.5. It also gave a TRZAWO ([6]; Rate 0.125 kg/ha) of 2.0, a TRZAWO rating ([6]; Rate 0.125 kg/ha) of 2.0 and a TRZAWO ([6]; Rate 0.250 kg/ha) of 2.0. For the same substance, the TRZAWO rating ([6]; Rate 0.250 kg/ha) was 2.0, the TRZAWO ([6]; Rate 0.500 kg/ha) was 2.0 and the TRZAWO rating ([6]; Rate 0.500 kg/ha) was 2.0. The IPOSS (IPOMOEA SPP.; Rate 0.063 kg/ha) was 6.0, the IPOSS (IPOMOEA SPP.; Rate 0.125 kg/ha) was 6.0 and the IPOSS rating (IPOMOEA SPP.; Rate 0.125 kg/ha) was 6.0. The IPOSS (IPOMOEA SPP.; Rate 0.250 kg/ha) was 8.0, the IPOSS rating (IPOMOEA SPP.; Rate 0.250 kg/ha) was 8.0 and the IPOSS (IPOMOEA SPP.; Rate 0.500 kg/ha) was 9.0. For the same substance, the IPOSS rating (IPOMOEA SPP.; Rate 0.500 kg/ha) was 9.0, the AMBEL ([7]; Rate 0.063 kg/ha) was 3.0 and the AMBEL ([7]; Rate 0.125 kg/ha) was 4.0. For the same substance, the AMBEL rating ([7]; Rate 0.125 kg/ha) was 4.0, the AMBEL ([7]; Rate 0.250 kg/ha) was 6.0 and the AMBEL rating ([7]; Rate 0.250 kg/ha) was 6.0. It also gave an AMBEL ([7]; Rate 0.500 kg/ha) of 7.0 and an AMBEL rating ([7]; Rate 0.500 kg/ha) of 7.0.
